This is an account of results in patent publication US9632034B2, “Fluorogenic and chromogenic substrate” (LI-COR, Inc., priority 2015, dated 2017).

Series [1] in a line: PTA solubility in water and in assay buffer with solubilizers (precipitate visualization, HPLC). It counts as physicochemical. The following applies: for Appearance of solution: PTA in assay buffer (Tris buffer, pH 9.5) with the named solubilizer at the w/v concentration printed in the table; for Appearance of PTA solution after overnight storage at room temperature: PTA in assay buffer (Tris buffer, pH 9.5) with the named solubilizer. As to the method: Next, the solvent system for phenothiazine (PTA) was tested. […] The solubility of PTA with polymers was tested by precipitate visualization and by HPLC of fresh and stored samples. Table 1 provides a comparison of polymers that include PTA solubility in an assay buffer, such as Tris buffer, pH 9.5.

Series [2] concerns the target T1, HRP-conjugated secondary antibody (Erk protein in C32 cell lysates) (Armoracia rusticana, UniProt P00433).
T1 sequence (P00433 31-338): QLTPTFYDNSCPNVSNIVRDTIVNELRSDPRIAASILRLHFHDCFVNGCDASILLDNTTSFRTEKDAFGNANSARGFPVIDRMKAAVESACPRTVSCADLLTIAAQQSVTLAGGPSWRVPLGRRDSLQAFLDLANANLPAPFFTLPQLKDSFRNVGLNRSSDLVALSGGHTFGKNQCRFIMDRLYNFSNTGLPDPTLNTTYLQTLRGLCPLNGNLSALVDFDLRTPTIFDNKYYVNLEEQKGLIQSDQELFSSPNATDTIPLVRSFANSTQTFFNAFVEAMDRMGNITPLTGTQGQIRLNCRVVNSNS
As to the kind of experiment: Western blot of Erk protein in C32 cell lysates, near-infrared chemifluorescence detection against chemiluminescent substrate. The format is biochemical. As for the experimental part:
A series of tests were performed to determine the optimal concentration of PTA in the detection method. Western blot analysis was performed on cell lysates generated from the C32 cell line that expresses high levels of Erk protein. The lysates were processed according to standard western blotting protocols. Briefly, Erk protein was detected using a primary antibody against Erk (an anti-Erk monoclonal antibody) and an HRP-conjugated secondary antibody (goat anti-mouse IgG antibody). Different concentrations of the PTA substrate were compared by visualization of color formation and detection of protein bands. The limit of detection (LOD) was measured by chemifluorescence signal and compared to the LOD using Thermo Scientific™ SuperSignal™ West Femto Substrate. […] FIG. 5 illustrates the comparison and effect of PTA concentration on LOD of Erk protein in C32 cell lysates.
The exemplary formulation of the detection solution tested comprises two concentrated solutions: Solution A (a first part) and Solution B (a second part). […]
In this experiment Erk protein was detected in C32 cell lysates using a 1:1000 dilution of a monoclonal antibody directed to Erk. […] Near-infrared fluorescence from PTA treated blot was detected using the Odyssey® CLx system set at the 700 channel. Chemiluminescence from the control blot was detected using the Odyssey® Fc imaging system set at the chemiluminescence channel.
For orientation: In western blotting, separated proteins are transferred to a membrane and probed.

Another series concerns the target T2, HRP-azine system (Armoracia rusticana, UniProt P00433).
T2 sequence (P00433 31-338): T1 sequence (P00433 31-338)
Description: Optimisation of formulation components (radical enhancer, nucleophilic reagent, oxidant) on western blot. The format is biochemical. The following applies: for preferred concentration in working solution: by rate of visualization and/or number of colored bands on western blot, PTAS tested 2 to 30 mM, MORP 0 to 20 mM; for effect of oxidant on azine oxidization and formation of colored and fluorescent compounds: at certain concentrations, HRP-azine system. As for the experimental part: The optimal concentrations of the cation radical enhancer, nucleophilic reagent, solvent system and oxidant in the formulation were also tested. Water soluble azine, particularly 3-(10′-phenothiazinyl)propane-1-sulfonate (PTAS) was tested at various concentrations from 2 to 30 mM in a working solution. The effects were evaluated using the rate (speed) of visualization and the number of colored band on western blot. The preferred concentration of PTAS was 18 mM. Other water soluble and N-substituted PTA derivatives can also be used in place of PTAS or in combination thereof. The nucleophilic reagent serves as a co-substrate in the detection solution. The nucleophilic reagent can include five or six membered nitrogen heteroaromatic ring compounds. MORP at concentrations from 0 to 20 mM was tested in the formulation. Based on the number of colored bands detected, the preferred concentration was 15 mM MORP in the working solution.
Stable oxidants that are compatible with HRP-azine system are tested. Sodium perborate (NaBO3), Urea-H2O2 and stabilized H2O2 at certain concentrations accelerated azine oxidization and formation of colored and fluorescent compounds.

`c1ccc2c(c1)Nc1ccccc1S2` [PTA, 10H-phenothiazine]: in series [1], the Appearance of solution entry was “cloudy” and the “Appearance of PTA solution after overnight storage at room temperature” value is given as “Precipitate,”. Also, the “PTA concentration given with appearance of PTA solution after overnight storage at room temperature” value in series [1] (assay buffer, no solubilizer added) stood at 0.15 µM. Besides, the “PTA concentration with the highest sensitivity in working solution” value in series [2] (LOD of Erk protein by chemifluorescence at 700 nm, 0.65, 0.35, 0.15 mM PTA compared) stood at 0.35 mM.

Consider `O=S(=O)([O-])CCCN1c2ccccc2Sc2ccccc21.[Na+]` [PTAS, sodium 3-(phenothiazine-10-yl)propane-1-sulfonate], for which the “preferred concentration in working solution” value on HRP-azine system came to 18 mM.

`OCCO` [Ethylene Glycol (EG), Ethylene Glycol]: in series [1], the Appearance of solution result was “cloudy” and the “Appearance of PTA solution after overnight storage at room temperature” value was “Precipitation,”. Moreover, in series [1] (PTA in assay buffer with the named solubilizer), the “PTA concentration given with appearance of PTA solution after overnight storage at room temperature” value was 500 µM.

On to `CN(C)c1ccc2c(c1)Sc1cc(N(C)C)ccc1N2C(=O)c1ccccc1` [BLMB], for which, in series [2] (BLMB formulation with dextran sulfate, DMAP, HNA, citric buffer, NaBO3, final pH 5.0), the “enhancement in sensitivity compared to SuperSignal West Femto Chemiluminescence Substrate” value is recorded as 2˜4 fold.

With `NC(N)=O.OO` [Urea-H2O2, urea-hydrogen peroxide], the “effect of oxidant on azine oxidization and formation of colored and fluorescent compounds” value (“effect of oxidant” below) on HRP-azine system was “accelerated”.

Regarding `OO` [stabilized H2O2, hydrogen peroxide], the “effect of oxidant” value at HRP-azine system is listed as “accelerated”.

As to Sodium perborate, on HRP-azine system, the “effect of oxidant” value is reported as “accelerated”.

Take `c1cc(N2CCOCC2)ccn1` [MORP, 4-morpholinopyridine]: the “preferred concentration in working solution” value at HRP-azine system came to 15 mM.
